The assay addresses T1, Beta-glucosidase (Agrobacterium sp. ATCC 21400, UniProt P12614).
T1 sequence (P12614 whole entry): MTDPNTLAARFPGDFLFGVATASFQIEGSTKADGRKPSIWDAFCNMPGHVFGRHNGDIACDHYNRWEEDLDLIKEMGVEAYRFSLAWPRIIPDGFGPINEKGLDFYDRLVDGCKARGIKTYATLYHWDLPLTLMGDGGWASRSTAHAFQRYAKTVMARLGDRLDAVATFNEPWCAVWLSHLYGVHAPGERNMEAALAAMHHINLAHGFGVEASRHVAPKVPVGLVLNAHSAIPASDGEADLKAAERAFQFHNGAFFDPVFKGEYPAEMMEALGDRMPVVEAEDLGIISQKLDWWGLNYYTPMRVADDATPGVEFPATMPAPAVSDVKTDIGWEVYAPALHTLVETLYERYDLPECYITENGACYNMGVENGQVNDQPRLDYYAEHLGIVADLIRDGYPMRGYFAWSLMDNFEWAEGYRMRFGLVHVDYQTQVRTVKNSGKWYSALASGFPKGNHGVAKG
The assay is described as follows: Inhibition of Agrobacterium sp. beta-glucosidase.

With `COC(=O)CCCCCNC(=O)[C@H](CCCCN1C[C@@H](O)[C@@H](O)[C@H](O)[C@H]1CO)NS(=O)(=O)c1cccc2c(N(C)C)cccc12`, the Ki (commonly the equilibrium dissociation constant of an inhibitor or competing ligand from its target) was 1000 µM.
Under `COC(=O)CCCCCNC(=O)CCCCCN1[C@H](CO)[C@@H](O)[C@H](O)[C@H]1CNS(=O)(=O)c1cccc2c(N(C)C)cccc12` stands 0.9 µM; under `COC(=O)CCCCCNC(=O)[C@H](CCCCN1C[C@H](O)[C@@H](O)[C@H](O)[C@H]1CO)NS(=O)(=O)c1cccc2c(N(C)C)cccc12`, 6.2 µM.

(Values after ChEMBL document CHEMBL1141570, “Glycosidase profiling with immobilised glycosidase-inhibiting iminoalditols--a proof-of-concept study” (Bioorg Med Chem Lett, 2008).)
